# Experimental data: patent US8247377B2, “Non-steroidal glucocorticoid inhibitors and their use in treating inflammation, allergy and auto-immune conditions” (Glaxo Group Limited, priority 2006, dated 2012)
# How the values were obtained:
# glucocorticoid receptor = biological target: T1, glucocorticoid receptor (Homo sapiens, UniProt P04150); test: Glucocorticoid receptor binding assay (fluorescence polarisation); conditions: competition with Alexa 555 fluorescently-labelled dexamethasone derivative, full length glucocorticoid receptor; read-out: glucocorticoid binding pIC50 (converted)
# T1 construct: a partially purified full length glucocorticoid receptor
# T1 sequence (P04150 1-777): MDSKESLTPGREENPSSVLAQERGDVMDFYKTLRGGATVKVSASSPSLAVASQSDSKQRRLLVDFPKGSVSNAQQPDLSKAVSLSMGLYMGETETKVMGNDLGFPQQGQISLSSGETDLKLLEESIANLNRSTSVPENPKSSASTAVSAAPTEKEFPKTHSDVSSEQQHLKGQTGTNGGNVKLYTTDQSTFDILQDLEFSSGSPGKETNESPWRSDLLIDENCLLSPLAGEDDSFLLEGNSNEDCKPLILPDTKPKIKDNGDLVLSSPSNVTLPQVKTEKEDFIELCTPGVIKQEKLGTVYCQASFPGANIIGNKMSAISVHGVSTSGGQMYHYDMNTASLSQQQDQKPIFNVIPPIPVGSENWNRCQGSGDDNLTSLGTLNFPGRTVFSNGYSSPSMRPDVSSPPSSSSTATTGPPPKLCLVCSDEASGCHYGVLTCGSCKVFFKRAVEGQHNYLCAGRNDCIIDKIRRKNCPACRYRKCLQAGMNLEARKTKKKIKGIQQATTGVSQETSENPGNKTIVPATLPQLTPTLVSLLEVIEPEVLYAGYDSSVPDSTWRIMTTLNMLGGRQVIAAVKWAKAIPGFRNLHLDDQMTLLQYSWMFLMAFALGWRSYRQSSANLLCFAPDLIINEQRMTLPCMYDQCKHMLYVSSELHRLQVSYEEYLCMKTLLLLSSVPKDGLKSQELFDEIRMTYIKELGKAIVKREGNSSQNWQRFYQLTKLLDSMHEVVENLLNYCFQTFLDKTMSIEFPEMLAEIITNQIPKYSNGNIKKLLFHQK
# Description: Compounds were solvated and diluted in DMSO, and transferred directly into assay plates. Fluorescent dexamethasone and a partially purified full length glucocorticoid receptor were added to the plates, together with buffer components to stabilise the GR protein and incubated at room temperature for 2 hrs in the dark. Binding of each compound was assessed by analysing the displacement of fluorescent ligand by measuring the decrease in fluorescence polarisation signal from the mixture. Dose response curves were constructed from which pIC50 values were estimated.
# [1] = Assay for brain penetrance; format: in vivo; conditions: brain and plasma, rat, single intravenous dose 1 mg/kg, read-out: brain to plasma ratio
# Description: Each rat received a single intravenous dose at a level of 1 mg/kg. The dose was formulated in 10% DMSO/50% PEG200/40% sterile water. Terminal blood samples were taken at 5 or 15 minutes after dosing, by cardiac puncture following anaesthesia with isofluorane. The brains were removed at the same time point.
# The compounds were extracted from 20 μL plasma by protein precipitation using 120 μL acetonitrile containing an analogue compound as an internal standard. The filtered extracts were collected into a 96 well plate and were diluted with an equal volume of 10% acetonitrile containing 0.1% formic acid in water (v/v). The plate was then mixed on a plate shaker for at least 5 minutes before analysis by LC-MS/MS against a calibration line prepared in control plasma.
# Each brain was weighed, then homogenised in 3 ml acetonitrile:water (10:90 v/v). The compounds were extracted from 200 μL of the resulting homogenate by protein precipitation using 600 μL acetonitrile containing an analogue compound as an internal standard. The extracts were centrifuged and 150 μl of each was filtered and transferred to a 96 well plate. The aliquot was diluted with 10% acetonitrile containing 0.1% formic acid in water (v/v). The plate was mixed on a plate shaker for at least 5 minutes before analysis by LC-MS/MS against a calibration line prepared in control brain homogenate.
# progesterone receptor = biological target: T2, progesterone receptor (Homo sapiens, UniProt P06401); test: Assay for progesterone receptor activity (CV-1 cells, PRb-BacMam/MMTV-BacMam); format: cell-based; conditions: CV-1 cells transduced with PRb-BacMam and MMTV-BacMam; read-out: pEC50 progesterone receptor activity (converted)
# T2 construct: expressed in transfected cells; host or cells: CV-1 cells transduced with PRb-BacMam and MMTV-BacMam
# T2 sequence (P06401 1-933): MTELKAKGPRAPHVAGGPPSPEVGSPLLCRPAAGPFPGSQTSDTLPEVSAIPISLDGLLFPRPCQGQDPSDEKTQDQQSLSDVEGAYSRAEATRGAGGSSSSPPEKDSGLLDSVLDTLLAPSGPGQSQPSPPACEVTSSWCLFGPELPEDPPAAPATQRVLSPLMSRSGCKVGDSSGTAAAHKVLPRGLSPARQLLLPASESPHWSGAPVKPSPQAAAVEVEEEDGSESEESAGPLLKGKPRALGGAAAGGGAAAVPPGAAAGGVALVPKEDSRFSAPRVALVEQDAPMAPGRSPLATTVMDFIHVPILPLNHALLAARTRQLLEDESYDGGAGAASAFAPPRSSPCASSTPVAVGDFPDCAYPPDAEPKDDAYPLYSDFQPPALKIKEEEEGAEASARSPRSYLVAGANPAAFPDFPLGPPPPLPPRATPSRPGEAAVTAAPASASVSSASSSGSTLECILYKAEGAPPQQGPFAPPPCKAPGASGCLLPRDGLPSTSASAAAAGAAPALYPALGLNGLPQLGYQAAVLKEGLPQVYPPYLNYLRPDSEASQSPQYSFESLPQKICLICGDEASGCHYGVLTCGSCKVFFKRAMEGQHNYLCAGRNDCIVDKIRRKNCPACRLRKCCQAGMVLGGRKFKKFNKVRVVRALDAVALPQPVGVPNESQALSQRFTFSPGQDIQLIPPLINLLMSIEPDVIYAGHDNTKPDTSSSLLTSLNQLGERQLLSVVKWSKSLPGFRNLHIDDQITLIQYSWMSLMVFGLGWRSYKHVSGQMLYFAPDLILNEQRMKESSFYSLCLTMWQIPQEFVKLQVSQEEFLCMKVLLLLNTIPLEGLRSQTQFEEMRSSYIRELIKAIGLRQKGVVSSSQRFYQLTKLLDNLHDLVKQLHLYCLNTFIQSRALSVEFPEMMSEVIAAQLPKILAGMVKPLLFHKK
# Description: A T225 flask of CV-1 cells at a density of 80% confluency was washed with PBS, detached from the flask using 0.25% trypsin and counted using a Sysmex KX-21N. Cells were diluted in DMEM containing 10% Hyclone, 2 mM L-Glutamate and 1% Pen/Strep at 140 cells/μl and transduced with 10% PRb-BacMam and 10% MMTV-BacMam. […] of suspension cells were dispensed to each well of white Nunc 384-well plates, containing compounds at the required concentration. After 24 h 10 μl of Steadylite were added to each well of the plates. Plates were incubated in the dark for 10 min before reading them on a Viewlux reader. Dose response curves were constructed from which pEC50 values were estimated.
# NFκB = NFκB agonist assay in A549 SPAP cells; format: cell-based; conditions: Homo sapiens; A549 SPAP cells, TNFα 3.2 ng/ml; read-out: pIC50 for the NFkB assay (converted)
# From the text: Human lung carcinoma A549 cell line (ECACC No. 86012804) has been stably transfected in house with a plasmid containing an ELAM promoter sequence that has a NFκB response element within it. Stimulation of the cell line with TNFα results in intracellular signal transduction and ultimately translocation of NFκB into the nucleus. This activates the inserted DNA sequence resulting in transcription of the integrated SPAP gene, which is quantified using a colorimetric assay. […] The stably transfected cell line was grown as a monolayer in DMEM supplemented with FCS-HI (10%), Non-essential amino acids (1%), L-Glutamine (2 mM), Pen/Strep (1%) and Geneticin (50 mg/ml).
# A 70% confluent T225 flask of A549 SPAP cells was harvested by centrifugation for 5 min at 200 g, resuspended in assay buffer (DMEM supplemented with 10% FCS 2×HI, 2 mM L-Glutamine, 1% Pen/Strep and Non essential amino acids) and diluted to 0.16×10^6/ml. 60 μl of cell solution was dispensed to each well of clear Nunc 384-well plates, containing compound at the required concentration. Plates were incubated for 1 h at 37° C., 95% humidity, 5% CO2 before 10 μl of TNFα was added at final concentration of 3.2 ng/ml and then returned to the cell incubator for 15 h. Plates were equilibrated to room temperature for 1 h prior to the addition of 25 μl of pNPP buffer (1M Diethanolamine pH 9.8, 0.5 mM MgCl2, 0.28M NaCl, 2 mg/ml pNPP) to each well of assay plates. The plates were covered to protect the reagents from light, and then incubated at room temperature for approximately 1 hour before reading them on an Ascent using a 405 nm single filter. Dose response curves were constructed from which pIC50 values were estimated.
smiles,measurement,setting,value
"CCN(CC(O)(CNC(=O)c1cnn(-c2ccc(F)cc2)c1N)C(F)(F)F)C(=O)c1c(F)cccc1F (single isomer, unassigned) [Example 5 Enantiomer 1, 5-Amino-N-(2-{[[(2,6-difluorophenyl)carbonyl](ethyl)amino]methyl}-3,3,3-trifluoro-2-hydroxypropyl)-1-(4-fluorophenyl)-1H-pyrazole-4-carboxamide]",IC50,glucocorticoid receptor,≤ 316 nM
same,Kp at 5 min,[1],≥ 0.1
same,EC50,progesterone receptor,> 1000 nM
same,IC50,NFκB,< 1000 nM
